Measured values taken from patent publication US7728146B2, “Enzyme inhibitors” (Probiodrug AG, priority 2006, dated 2010).

Key:
[1] = test system: liver cell carcinoma cell line Hep-G2; assay: Cytotoxicity screening and LD50 determination on Hep-G2 (LDH, CytoTox-One); assay type: cell-based; conditions: for Cytotox 100 μM (%) HEPG2 / Viability 100 μM (%) HEP-G2: 24 h; for Cytotox 100 μM (%) HEPG2: LDH activity in cell culture media, lysed untreated cells = 100%; for Viability 100 μM (%) HEP-G2: LDH of lysed cells, untreated control = 100%; for Cytotox 100 μM (%) HEPG2 / Viability 100 μM (%) HEP-G2 / Observed cytotox: 100 μM; for Observed cytotox: Hep-G2, observation of the cells; for LD50 Viability HEP-G2 / LD50 cytotox HEP-G2: 8 serial dilutions, highest concentration 1 mM
In short: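 Hep-G2 cells (50 000/well) precultured 24 h, then compound in DMSO (final 1%) added for 24 h. Screen at 100 μM, 2 μM, 40 nM in triplicate. LDH in medium gave cytotoxicity (untreated 0%, lysed 100%); LDH of lysed cells gave viability. LD50 from 8 serial dilutions, top 1 mM.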

[2] = test system: male Sprague Dawley rats; assay: Circadian courses of activity, feeding and drinking behaviour; body weight, food and fluid consumption during chronic administration; assay type: in vivo, rat; conditions: vs vehicle
Method: Example 130b as hydrochloride salt was dissolved in tap water in concentrations of 0.03, 0.1 and 0.3 mg/ml. Assuming a daily fluid intake of approx. 30 ml per animal (animal's weight: approx. 300 g), these concentrations should result in doses of approx. 3, 10 and 30 mg/kg/day. The solutions were prepared freshly every day. During chronic administration, solution offer was limited to 40 ml per day for each animal.
Imipramine was dissolved 0.5% Natrosol and administered once daily i.p. for 8 days (test group TG 11, see below) with a dose of 15 mg/kg/day in a volume of 1 ml/kg.
216 male Sprague Dawley rats. The animals were 6 weeks old at the start of the study. They were housed in groups of 4 animals (“acute animals”) or in single cages (“chronic animals”) at 12 h/12 h light/dark (start of the light phase at 2 a.m.), 20° C., 60% rH. Animals were provided by Elevage Janvier, France.
During the 7 days lasting period of chronic compound administration, animals were kept singly. On the first day they were kept in single Macrolon home cages. On the next day they were transferred to activity monitoring cages and kept there for 3 days. For the following 3 days they returned to their home cages (single housing).
Animals received the test compound chronically via the drinking fluid. The reference compound Imipramine was given i.p. (one administration per day, one hour before the respective tests). Fluid supply was restricted to 40 ml per day for all test groups. On the first day of chronic test compound exposure, animals were kept singly in standard single home cages to enable an individual assessment of test compound intake. On the second day, animals were transferred to infrared monitoring cages for 3 days. Food and fluid offer were the same as in the home cage. Measuring rearing activity near fluid bottles and food grid enabled an assessment of the time structure of food and water (compound) consumption. Behavioural observation started one hour before the beginning of the dark phase (2 p.m.). After 22 hours, body weight, food and fluid consumption were measured. 2 hours later, the next recording started.
Raw data were provided as computer files accompanied by written protocol sheets. As the animals were still adapting to the environment and administration the time courses of the following parameters were calculated only for the last day of registration: • Food and fluid intake (time %) • Number of feeding and […] bouts • Meal pattern parameters reflecting e.g. the duration and recurrence of feeding and drinking bouts • Total distance travelled (cm/min) • Small movements (cm/min) • Distance travelled with rapid locomotion (cm/min) • Distance travelled with slow locomotion (cm/min) • Immobility (time %) • Use of available space (%) • Locomotor stereotypies (score, first hour of the dark phase only) • Rearing (time %) • Number of rearing acts (N) Feeding and Drinking Bouts and Bout-Related Analysis:
On the basis of high-resolution infrared beam recordings, feeding and drinking is identified by means of beam interruption in the upper frame near to the positions of food or water. Feeding or drinking acts are then defined as temporally contingent behavioural pattern separated from each other by intervals not longer than 0.5 seconds. Normally, several acts form a feeding or drinking bout. The intervals within a bout are definitely shorter than between subsequent bouts. A threshold interval can be set to distinguish between intra-bout and inter-bout intervals.
Stereotyped locomotion was assessed by means of statistical comparisons between the observed locomotor sequences (as described by the movement from one of the 4×4 subsquares to another) and a “random walk”. The comparison is performed at 5 different levels:
The coefficient of locomotor stereotypies (SC, in %) at each level has a value of SC=0 when there are no regularities within the movement pattern (random walk). […]

[3] = circadian registration, Imipramine 15 mg/kg/day i.p., Example 130b approx. 3, 10, 30 mg/kg/day
[4] = Imipramine 15 mg/kg/day i.p., Example 130b hydrochloride approx. 3, 10, 30 mg/kg/day via drinking fluid

Structure (SMILES) | Cytotox 100 μM (%) HEPG2 [1] [%] | Viability 100 μM (%) HEP-G2 [1] [%] | Observed cytotox [1] [% spheric] | LD50 Viability HEP-G2 [1] [mM] | LD50 cytotox HEP-G2 [1] [mM] | cumulated number of drinking bouts ([2]; 22 hours of measurement, Example 130b approx. 3, 10, 30 mg/kg/day) | horizontal and vertical (locomotor) activity [2, 3] | time accessing food and water (fluid) [2, 3] | locomotor stereotypies (stereotypy index) ([2]; first hour of the dark phase, Imipramine: level 2, 3 and 4 stereotypies, Example 130b: usage of available space or stereotypy index) | body weight (gain) [2, 4] | fluid intake [2, 4] | food intake [2, 4]
NCc1c(-c2ccc(Cl)cc2Cl)ncn1Cc1ccccc1 [Example 24b, (1-benzyl-4-(2,4-dichlorophenyl)-1H-imidazol-5-yl)methanamine] | 5.9 | 119.2 | 10 | 0.20 | 0.18 | – | – | – | – | – | – | –
NCc1c(-c2ccc(Cl)cc2Cl)ncn1Cc1ccsc1 [Example 130b, (4-(2,4-dichlorophenyl)-1-((thiophen-3-yl)methyl)-1H-imidazol-5-yl)methanamine] | – | – | – | 0.24 | 0.21 | dose-dependently reached a lower total number | no statistically significant effects | did not differ | no statistically significant effects | not affected | dose-dependently led to a reduction | not affected
NCc1c(-c2ccc(Cl)cc2Cl)ncn1Cc1ccccn1 [Example 39b] | 3.9 | 115.7 | 20 | 0.80 | 0.74 | – | – | – | – | – | – | –
NCc1c(-c2ccc(Cl)cc2Cl)ncn1Cc1cccnc1 [Example 121b, (4-(2,4-dichlorophenyl)-1-((pyridin-3-yl)methyl)-1H-imidazol-5-yl)methanamine] | 0 | 104.0 | – | 1.05 | 0.92 | – | – | – | – | – | – | –
